In patent publication US20150005269A1, “Treatment of Heart Failure and Sudden Cardiac Death” (Rhode Island Hospital, priority 2012, published 2015):

Test system: SERCA2
Assay: SERCA2 protein level by Western blot in cultured neonatal rabbit ventricular cardiomyocytes
Format: cell-based
Settings: cultured neonatal rabbit ventricular cardiomyocytes (NRbVCM), 50 nM RU486 for 48 hours, normalized against GAPDH
Protocol: Protein level of SERCA2 was analyzed by western blots. All measurements were normalized against GAPDH. Bar graphs represent the averages of three independent experiments plus S.D. in arbitrary unit. * p<0.05. […] Ventricular cardiomyocytes were isolated in neonatal wild type NZW rabbits (3-5 days old, 70-110 g) with enzymatic techniques. The hearts were removed from euthanized rabbits and perfused for 5 to 7 minutes with a free solution containing 140 mM NaCl, 4.4 mM KCl, 1.5 mM MgCl2, 0.33 mM NaH2PO4, 16 mM taurine, 5 mM HEPES, 5 mM pyruvic acid, and 7.5 mM glucose. Subsequently, the hearts were perfused for 10 to 15 minutes with the same solution to which 0.3 mg/ml collagenase was added. The whole ventricles were cut off and minced, and the cells were dispersed in a solution containing 45 mM KCl, 65 mM K-glutamate, 3 mM MgSO4, 15 mM KH2PO4, 16 mM taurine, 10 mM HEPES, 0.5 mM EDTA, and 10 mM glucose (pH 7.3). The cell suspension was filtered through a 100-pm cell strainer and kept at room temperature for one hour. Thereafter, the cells were gradually recovered with MEM, in which Ca^2+ concentration was increased from 100 μM, 500 μM, 1000 μM and 1800 μM. Every well of six-well plate was seed one million cells, cultured in DMEM (Lonza 12-[MUT],) with 7% FBS and 100 μM of BrdU. Medium was changed every 24 to 48 hours. […] The SERCA2 is detected by anti-SERCA2 antibody. […]

In the case of CC#C[C@]1(O)CC[C@H]2[C@@H]3CCC4=CC(=O)CCC4=C3[C@@H](c3ccc(N(C)C)cc3)C[C@@]21C [RU486, Mifepristone], the “increase of the expression of SERCA2 polypeptides” value is reported as 60%.
